Literature values, collected in patent US20250057795A1 (priority 2023, published 2025).
Like-named read-outs stand apart in the source and are kept apart here. Blank lines part the entries; values can stand above or below the molecule they belong to.

Assays:
[1] = compared with Levodopa; due to increased solubility
GPR143 [2] = target: T1, GPR143 (Homo sapiens, UniProt P51810)
GPR143 [3] = target: T1, GPR143; conditions: retinal pigment epithelial cells
GPR143 [4] = target: T1, GPR143; conditions: same site as L-DOPA

T1 sequence (P51810 whole entry): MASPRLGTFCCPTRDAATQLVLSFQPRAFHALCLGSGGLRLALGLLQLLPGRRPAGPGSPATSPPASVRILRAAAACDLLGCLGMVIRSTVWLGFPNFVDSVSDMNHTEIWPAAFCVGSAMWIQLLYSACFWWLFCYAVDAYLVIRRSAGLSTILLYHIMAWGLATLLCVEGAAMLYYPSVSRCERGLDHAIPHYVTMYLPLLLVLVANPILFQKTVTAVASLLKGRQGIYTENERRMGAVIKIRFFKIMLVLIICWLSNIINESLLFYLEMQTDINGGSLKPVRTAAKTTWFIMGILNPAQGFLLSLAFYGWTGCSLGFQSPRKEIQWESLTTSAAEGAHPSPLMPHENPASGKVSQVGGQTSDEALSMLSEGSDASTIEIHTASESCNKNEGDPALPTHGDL

- ocular penetration [1]: increased ocular penetration
Compound: CCOC(=O)[C@@H](N)Cc1ccc(O)c(O)c1 [Etilevodopa]

- need for anti-VEGF injections (GPR143 [2]; continued Levodopa therapy, compared to historical controls): decreased need for anti-VEGF injections
- vision (GPR143 [2]; new onset nAMD, naive to anti-VEGF, 1 month): improved vision
- release / production of VEGF (and exosomes) (GPR143 [3]): downregulates the production of VEGF
- release of PEDF (GPR143 [3]): significantly upregulates
- release of PEDF (GPR143 [3]; listed as L-DOPA): stimulated the release of PEDF
Compound: N[C@@H](Cc1ccc(O)c(O)c1)C(=O)O [Levodopa]

- water solubility: practically insoluble
Compound: COc1ccc2[nH]cc(CCNC(C)=O)c2c1 [Melatonin]

- affinity for GPR143 (GPR143 [4]): near-equal affinity to L-DOPA
Compound: NCCc1ccc(O)c(O)c1 [dopamine]
- release / production of VEGF (and exosomes) (GPR143 [3]): stimulated the release of VEGF and exosomes
